pIC50: −log10 of the molar value. Converted amounts (≈) assume the structure as drawn.
Columns and labels:
DU-145 [1] = assay: Anti-tumor activity against human DU145 cells xenografted in SCID mouse assessed as tumor volume at 20 mg/kg, po administered once daily for 28 days measured every seven days during compound dosing (reference value: 314 +/- 54.8 mm3); format: functional
SH-SY5Y [2] = assay: Neuroprotective activity against 6-OHDA-induced cell death in human SH-SY5Y cells assessed as apoptotic cells at 0.5 ug/ml pretreated for 1 hr followed by 6-OHDA challenge measured after 24 hrs by propidium iodide/RNase staining based flow cytometry (reference value: 31.56 %); format: functional
Rattus norvegicus [3] = assay: In vivo inhibition of P-gp in Sprague-Dawley rat assessed as increase in nimodipine AUC at 8 mg/kg, po pretreated for 30 mins followed by nimodipine addition measured after 36 hrs by HPLC method relative to nimodipine alone; format: functional
HMC1 = assay: Cytotoxicity against HMC1 cells assessed as reduction in cell viability at 1.8 to 30 uM after 24 hrs by trypan blue assay relative to control; format: cell-based; details: human, hmc1, 24 h
DU-145 [4] = assay: Anti-tumor activity against human DU145 cells xenografted in SCID mouse assessed as tumor volume at 10 mg/kg, po administered once daily for 28 days measured every seven days during compound dosing (reference value: 314 +/- 54.8 mm3); format: functional
[5] = Tmax in Sprague-Dawley rat at 224 umol/kg, po administered via gastric gavage; format: ADME, organism-based; details: in vivo
Rattus norvegicus [6] = assay: In vivo inhibition of P-gp in Sprague-Dawley rat assessed as increase in nimodipine AUC at 2 mg/kg, po pretreated for 30 mins followed by nimodipine addition measured after 36 hrs by HPLC method relative to nimodipine alone; format: functional
SH-SY5Y [7] = assay: Neuroprotective activity against 6-OHDA-induced cell death in human SH-SY5Y cells assessed as apoptotic cells at 5 ug/ml pretreated for 1 hr followed by 6-OHDA challenge measured after 24 hrs by propidium iodide/RNase staining based flow cytometry (reference value: 31.56 %); format: functional
Rattus norvegicus [8] = assay: In vivo inhibition of CYP3A4 in Sprague-Dawley rat assessed as increase in cyclosporine AUC at 112 uM/kg, po administered via gastric gavage coadministered with 2.5 mg/kg cyclosporine measured after 720 to 1440 mins by monoclonal fluorescence polarization assay relative to control; format: ADME, organism-based; set-up: scale not given: the % may be the effect or the level left
Cytochrome P450 3A4 = Cytochrome P450 3A4 (Homo sapiens, UniProt P08684); assay: Inhibition of human CYP3A4 expressed in baculovirus infected insect cells using 7-benzyloxy-4-trifluoromethylcoumarin as substrate measured after 45 mins in presence of NADPH by spectrofluorometric method; format: ADME
Sequence of Cytochrome P450 3A4 (P08684 whole entry): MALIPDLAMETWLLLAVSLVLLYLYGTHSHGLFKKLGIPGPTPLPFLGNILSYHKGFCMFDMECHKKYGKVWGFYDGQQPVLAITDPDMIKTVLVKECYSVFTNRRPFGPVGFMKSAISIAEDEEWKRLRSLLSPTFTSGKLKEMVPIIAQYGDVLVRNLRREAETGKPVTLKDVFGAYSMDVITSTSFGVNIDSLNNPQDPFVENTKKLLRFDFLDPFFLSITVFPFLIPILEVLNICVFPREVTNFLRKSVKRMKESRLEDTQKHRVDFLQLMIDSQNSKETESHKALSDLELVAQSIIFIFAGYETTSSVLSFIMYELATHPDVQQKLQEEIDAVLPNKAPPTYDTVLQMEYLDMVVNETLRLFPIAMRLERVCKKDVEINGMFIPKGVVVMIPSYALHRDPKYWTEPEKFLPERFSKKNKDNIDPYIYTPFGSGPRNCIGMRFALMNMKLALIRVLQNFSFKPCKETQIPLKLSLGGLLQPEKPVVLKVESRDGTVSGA

Rattus norvegicus [9] = assay: Neuroprotective activity in 6-OHDA-induced lesioned Sprague-Dawley rat assessed as increase in TH-immunopositive neurons at 200 mg/kg, ig administered once daily for 15 days measured on day 42 post 6-OHDA lesion induction by immunohistochemical analysis relative to control; format: functional
Rattus norvegicus [10] = assay: In vivo inhibition of CYP3A4 in Sprague-Dawley rat assessed as increase in cyclosporine Cmax at 112 uM/kg, po administered via gastric gavage coadministered with 2.5 mg/kg cyclosporine measured after 720 to 1440 mins by monoclonal fluorescence polarization assay relative to control; format: ADME, organism-based; set-up: scale not given: the % may be the effect or the level left
[11] = Apparent permeability of the compound; format: physicochemical; details: not told
NCI-H460 = assay: Cytotoxicity against human H460 cells assessed as reduction in cell viability at 50 uM after 72 hrs by trypan blue staining based assay relative to control; format: functional
[12] = (§1) Oral bioavailability in Sprague-Dawley rat at 224 umol/kg administered via gastric gavage; format: ADME, organism-based; details: Sprague-Dawley, in vivo, 224 umol/kg
DU-145 [13] = assay: Anti-tumor activity against human DU145 cells xenografted in SCID mouse assessed as tumor volume at 30 mg/kg, po administered once daily for 28 days measured every seven days during compound dosing (reference value: 314 +/- 54.8 mm3); format: functional
Rattus norvegicus [14] = assay: In vivo inhibition of P-gp in Sprague-Dawley rat assessed as increase in cyclosporine Cmax at 112 uM/kg, po administered via gastric gavage coadministered with 2.5 mg/kg cyclosporine measured after 720 to 1440 mins by monoclonal fluorescence polarization assay relative to control; format: functional; set-up: scale not given: the % may be the effect or the level left
Rattus norvegicus [15] = assay: In vivo inhibition of P-gp in Sprague-Dawley rat assessed as increase in cyclosporine AUC at 112 uM/kg, po administered via gastric gavage coadministered with 2.5 mg/kg cyclosporine measured after 720 to 1440 mins by monoclonal fluorescence polarization assay relative to control; format: functional; set-up: scale not given: the % may be the effect or the level left
Mus musculus [16] = assay: Antiinflammatory activity in dextran sodium sulphate-induced C57BL/6 mouse colitis model assessed as disease activity index at 100 mg/kg, ig administered once daily pretreated for 3 days followed by DSS challenge and subsequent treatment for 7 days measured 24 hrs post last dose (reference value: 5.67 +/- 1.03); format: functional
Mus musculus [17] = assay: Anti-inflammatory activity in adjuvant-induced C57BL/6 mouse arthritis model assessed as reduction in ankle swelling by measuring splenic Th17 cell population expansion at 100 mg/kg, ip administered once daily for 1 week starting from 14 days post-immunization measured by flow cytometry relative to control; format: functional; set-up: scale not given: the % may be the effect or the level left
Mus musculus [18] = assay: Anti-inflammatory activity in proteolipid protein 139-151/complete freund's adjuvant-induced SJL/J mouse autoimmune encephalomyelitis model assessed as reduction in clinical score at 5 to 10 mg/kg, ip administered once daily pretreated for 1 day followed by immunization and subsequent treatment for 3 days measured up to 6 days; format: functional
Rattus norvegicus [19] = assay: Anti-hyperplasia activity in carotid arterial balloon-injury-induced Sprague-Dawley rat neointimal hyperplasia model assessed as reduction in thickness of left carotid artery by measuring intima to media thickness ratio at 70 mg/kg administered once daily via gastric gavage from 3 days before balloon injury to 28 days after the injury measured post last dose by haematoxylin/eosin staining based assay relative to control; format: functional; set-up: scale not given: the % may be the effect or the level left
[20] = Solubility of the compound in water; format: physicochemical; details: buffer
Rattus norvegicus [21] = assay: as §1; format: ADME, organism-based; details: in vivo
Rattus norvegicus [22] = assay: In vivo inhibition of P-gp in Sprague-Dawley rat assessed as increase in cyclosporine Cmax at 112 uM/kg, po administered via gastric gavage coadministered with 2.5 mg/kg cyclosporine measured after 540 mins by monoclonal fluorescence polarization assay relative to control; format: functional; set-up: scale not given: the % may be the effect or the level left
Rattus norvegicus [23] = assay: In vivo inhibition of CYP3A4 in Sprague-Dawley rat assessed as increase in cyclosporine Cmax at 112 uM/kg, po administered via gastric gavage coadministered with 2.5 mg/kg cyclosporine measured after 540 mins by monoclonal fluorescence polarization assay relative to control; format: ADME, organism-based; set-up: scale not given: the % may be the effect or the level left; details: 9 h
Rattus norvegicus [24] = assay: In vivo inhibition of CYP1A2 in Sprague-Dawley rat assessed as increase in unbound phenacetin level in plasma at 450 mg/kg, iv coadministered with phenacetin by UV-HPLC method relative to phenacetin alone; format: ADME, organism-based
Rattus norvegicus [25] = assay: In vivo inhibition of P-gp in Sprague-Dawley rat assessed as increase in cyclosporine AUC at 112 uM/kg, po administered via gastric gavage coadministered with 2.5 mg/kg cyclosporine measured after 540 mins by monoclonal fluorescence polarization assay relative to control; format: functional; set-up: scale not given: the % may be the effect or the level left
Rattus norvegicus [26] = assay: In vivo inhibition of CYP3A4 in Sprague-Dawley rat assessed as increase in cyclosporine AUC at 112 uM/kg, po administered via gastric gavage coadministered with 2.5 mg/kg cyclosporine measured after 540 mins by monoclonal fluorescence polarization assay relative to control; format: ADME, organism-based; set-up: scale not given: the % may be the effect or the level left; details: 9 h

What does the source list for `O=c1cc(-c2ccccc2)oc2cc(O)c(O)c(O)c12` [BAICALEIN]?
Activity (DU-145 [1]): 114.2 mm3; Activity (SH-SY5Y [2]): 18.9%; fold change (FC) (Rattus norvegicus [3]): 1.6; Activity (HMC1): 93 to 95%; Activity (DU-145 [4]): 144.5 mm3; Tmax [5]: 0.167 h; fold change (FC) (Rattus norvegicus [6]): 1.4; Activity (SH-SY5Y [7]): 21.61%; Activity (Rattus norvegicus [8]): 150.2%; pIC50 (Cytochrome P450 3A4): 5.04; Activity (Rattus norvegicus [9]): 265.52%; Activity (Rattus norvegicus [10]): 87.5%; Papp [11]: 17 ×10⁻⁶ cm/s; Activity (NCI-H460): 42%; bioavailability [12]: 0%; Activity (DU-145 [13]): 183 mm3; Activity (Rattus norvegicus [14]): 87.5%; Activity (Rattus norvegicus [15]): 150.2%

For `O=C(O)[C@H]1O[C@@H](Oc2cc3oc(-c4ccccc4)cc(=O)c3c(O)c2O)[C@H](O)[C@@H](O)[C@@H]1O` [BAICALIN], which Activity_index (Mus musculus [16]) is on record?
Its Activity_index is 3.03.

And the Activity (Mus musculus [17])?
Its Activity is 40%.

What about the Tmax [5] of the same molecule?
Its Tmax is 6.6 h.

And the Activity (Mus musculus [18])?
Its Activity is 2.2.

What about the Activity (Rattus norvegicus [19]) of the same molecule?
The Activity was 55%.

And the Papp [11]?
The Papp was 0.037 ×10⁻⁶ cm/s.

What about the solubility [20] of the same molecule?
The solubility was 52 µg/mL (≈ 116 µM).

What about the F (Rattus norvegicus [21]) of the same molecule?
The F was 62%.

What about the Activity (Rattus norvegicus [22]) of the same molecule?
Its Activity is 408.1%.

And the Activity (Rattus norvegicus [23])?
The Activity was 408.1%.

And the “fold change (FC)” value (Rattus norvegicus [24])?
Its value is 2.

What about the Activity (Rattus norvegicus [25]) of the same molecule?
The Activity was 685.3%.

And the Activity (Rattus norvegicus [26])?
Its Activity is 685.3%.

From ChEMBL document CHEMBL4038271, “Therapeutic potentials of baicalin and its aglycone, baicalein against inflammatory disorders” (Eur J Med Chem, 2017)
